Measurements taken from patent publication US20160166700A1, “METHOD FOR AMELIORATING LIVER FIBROSIS BY USING NANOPARTICLE CONTAINING TYROSINE KINASE INHIBITOR” (National Tsing Hua University, priority 2014, published 2016).

How the values were obtained:
collagen I = assay: Extracellular matrix (collagen I) content in fibrotic liver of treated mice; type: in vivo; conditions: FIG. 9C
From the text: Collagen is the most abundant protein in not only the human body but also the extracellular matrix.

[1] = system: hepatic stellate cell (HSC); type: cell-based; conditions: HSCs; MTT after 48 or 72 hours; FIG. 5B
Procedure: The HSC was purchased from ScienCell Research Laboratories (#5300, San Diego, Calif., USA) and the HUVEC was obtained from Bioresource Collection and Research Center, Food Industry Research and Development Institute (BCRC number: H-UV001, Hsinchu, Taiwan). Firstly, HUVECs and HSCs were planted in 96-well plates at a density of 2,000 cells/well and were left overnight for adhesion. Then, different forms of sorafenib or drug carriers were added. After 48 or 72 hours, 3-(4, 5-cimethylthiazol-2-yl)-2, 5-diphenyl tetrazolium bromide (MTT), which dissolved in PBS, was added to each well and the cells were further incubated at 37° C. for 3 hours. Finally, to each well, 50 μL of DMSO were added and a spectrophotometer was used to analyze the result at a wavelength of 570 nm. […] In addition, cells without any treatment served as Vehicle Group, while cells treated with free sorafenib served as Positive Control Group. […] Meanwhile, according to the results of cell viability of the cells treated with the PEG-PLGA particle alone (Negative Control Group 1) and PEG-PLGA/PLGA nanoparticle composition alone (Negative Control Group 2), it is confirmed that the PEG-PLGA and PEG-PLGA/PLGA co-polymer are non-cytotoxic and will not result in death of the target cells.

[2] = system: α-smooth muscle actin (α-SMA); assay: α-SMA expression (western blotting) as indicator for HSC activation in treated mice; type: in vivo; conditions: FIG. 9A
From the text: The expression of α-smooth muscle actin (α-SMA) is an indicator for HSC activation.

[3] = Pharmacokinetics of injected C6-loaded nanoparticle composition (C6 in blood); type: in vivo, C3H mice; conditions: 0.5 to 1 hour after injection; 0.1 mg/kg tail intravenous injection; FIG. 6
Procedure: C6 was injected to C3H mice with or without the nanoparticle encapsulation at a dosage of 0.1 mg/kg via tail intravenous injection. 40 μL of blood from the tail artery of the mice were collected and mixed with ethylenediaminetetraacetic acid (EDTA) at different period of time. Fluorescence intensity was measured under an excitation wavelength of 485 nm and an emission wavelength of 538 nm. Standard curves of the C6 or C6-loaded PLGA nanoparticle composition in blood were used to calculate the content of C6 in mice.

Row | C6 concentration in blood [3] | Structure (SMILES) | extracellular matrix in fluorescent microscopic image (illuminated regions) (collagen I) | cell viability [1] | α-SMA expression (western blotting) [2]
1 |  | CNC(=O)c1cc(Oc2ccc(NC(=O)Nc3ccc(Cl)c(C(F)(F)F)c3)cc2)ccn1 [free sorafenib, sorafenib] | not noteworthy | about 75% | suppressed
2 | about 1% | CCN(CC)c1ccc2cc(-c3nc4ccccc4s3)c(=O)oc2c1 [C6 alone, Coumarin 6] |  |  | 
